Experiments:
[1] = Particle size, PDI and ζ-potential of mRNA-LNP (Zetasizer Nano ZS); assay type: physicochemical; conditions: mRNA-LNP formulation phospholipid:CL4F6:Chol:PEG-DMG 10:50:40:1.0, Fluc mRNA
Experimental: (§1) Ethanol solutions containing each phospholipid, CL4F6, Chol, and PEG2000-dimirystoylglycerol (PEG-DMG) at the molar ratio of 10:50:40:1.0 were prepared at the total lipid concentration of 16 mM. For fluorescent labeling of LNPs, 0.5 mol% of DiI or DiR was added to the above solutions. The firefly luciferase (Fluc)-encoding mRNA (TriLink) was dissolved in a 25 mM acetate buffer (pH 4.0). LNPs were prepared by mixing the lipids in ethanol and RNA in an aqueous solution using an iLiNP device at a total flow rate (TFR) of 0.5 mL/min and a flow rate ratio (FRR) (RNA flow rate/lipid flow rate) of 3. The nitrogen to phosphate (N/P) ratio was adjusted to 6. Syringe pumps (Harvard apparatus) were used to control the flow rate of the solutions. The resulting LNP solutions were then dialyzed for 2 hours or more at 4 °C against phosphate buffered saline without Ca^2+ and Mg^2+ (PBS(-)) using Spectra/Por 4 dialysis membranes (molecular weight cut-off 12,000-14,000 Da, Spectrum Laboratories). The LNP solutions were concentrated by ultrafiltration using an Amicon Ultra-15 unit (MWCO 100 kDa, Millipore) as needed.
(§2) The ζ-average particle size, polydispersity index (PDI), and ζ-potential of the LNPs were measured by means of a Zetasizer Nano ZS ZEN3600 instrument (Malvern Instruments). The encapsulation efficiency and total concentration of mRNA were measured by a Ribogreen assay according to a conventional method.

[2] = Ribogreen assay, mRNA encapsulation efficiency of LNP; assay type: physicochemical; conditions: mRNA-LNP formulation phospholipid:CL4F6:Chol:PEG-DMG 10:50:40:1.0, Fluc mRNA
Experimental: as §1, §2

erythrocytes (RBCs) = test: Membrane disruption ability of LNP (hemolytic activity); assay type: cell-based, BALB/c mice; conditions: pH 6.0, 37°C, 30 minutes, Fig. 6B
Experimental: In order to use as an index of endosomal escape efficiency of LNP, membrane disruption ability of LNP was evaluated using erythrocytes as a model biological membrane. Specifically, fresh erythrocytes (RBCs) were collected from BALB/c mice and suspended in a buffer solution (10 mM malic acid, 10 mM HEPES, 10 mM MES, and 120 mM NaCl) at pH 5.0, 6.0, or 7.4. The RBC suspension was mixed with the same amount of each LNP suspension (containing DOPE-C8, DOPE, or DSPC as phospholipid) and reacted at 37°C for 30 minutes. Then, the supernatant was collected, absorbance at 545 nm was measured, and hemoglobin leaked from the erythrocytes was quantified. As a positive control, a sample hemolyzed with 0.5 w/v% Triton X-100 was prepared, and as a negative control, a sample not containing LNP was prepared. The ratio of the absorbance of the test sample to the absorbance of the positive control was expressed as % hemolytic activity.

[3] = Lipid polymorphism by 31P NMR method (mixtures with POPC); assay type: physicochemical
Experimental: In order to examine the interaction between DOPE-Cx and PC and characteristics thereof, lipid polymorphism of the lipid suspension was evaluated by a ^31P NMR method. Since the rotational motion of lipid molecules in a lamellar phase which is a planar structure and a (inverted) hexagonal phase which is a tubular structure receives different restrictions respectively, a specific ^31P NMR spectrum is provided by chemical shift anisotropy. Specifically, the lamellar phase produces a broad […] peak, and the (inverted) hexagonal phase produces a broad […] peak.
First, DOPE or DOPE-C8 and 1-palmitoyl-2-oleoyl-sn-glycero-3-phosphocholine (POPC) were mixed at a predetermined ratio in 400 µL of chloroform (total lipid 16 µmol), and the solvent was removed by a rotary evaporator to form a lipid membrane. The lipid membrane was hydrated with 500 µL of 20 mM HEPES buffer (pH 7.4, 130 mM NaCl) at 60°C. Then, the lipid dispersion was transferred to an NMR tube, and a ^31P NMR spectrum at room temperature was measured by a conventional method using an ECX 400P spectrometer (JEOL Ltd.).

liver [4] = test: mRNA introduction ability: luciferase activity in the liver after intravenous Fluc mRNA-LNP; assay type: in vivo, BALB/c mice; conditions: Fig. 2, n=3, LNP containing the phospholipid, 0.01 mg RNA/kg, livers collected 6 hours later
Experimental: as §1, with “The resulting LNP solutions were then dialyzed for 2 hours or more at 4 °C against phosphate buffered saline without Ca^2+ and Mg^2+ (PBS(-)) using Spectra/Por 4 dialysis membranes (molecular weight cut-off 12,000-14,000 Da, Spectrum Laboratories). The LNP solutions were concentrated by ultrafiltration using an Amicon Ultra-15 unit (MWCO 100 kDa, Millipore) as needed.” left out
The mRNA-LNP formulations prepared in the above item (2) were intravenously administered to BALB/c mice at a dose of 0.01 mg RNA/kg, and the livers were collected by a conventional method 6 hours later. […] The supernatant was collected, and […] was measured by a luminometer (Luminescencer-PSN, ATTO Corporation) using Luciferase Assay System (Promega). The protein concentration was determined using a BCA protein assay kit (Pierce). Fluc activity was expressed as relative light units (RLU) per 1 mg of protein.

liver [5] = test: EGFP expression in the liver after intravenous EGFP mRNA-LNP (CLSM); assay type: in vivo, BALB/c mice; conditions: Fig. 5, LNP containing the phospholipid, 1 mg RNA/kg, 24 hours later, compared with DSPC or DOPE LNP
Experimental: Further, an mRNA-LNP formulation was prepared in the same manner as in the above item (2) except that mRNA encoding EGFP (TriLink) was used as mRNA, and it was intravenously administered to BALB/c mice at a dose of 1 mg RNA/kg. Then, 24 hours later, the liver was collected by a conventional method, and expression of EGFP was observed using a confocal laser scanning microscope (CLSM).

[6] = Lipid polymorphism by SAXS method; assay type: physicochemical; conditions: DOPE-C8 and POPC at a molar ratio of 1:1, Fig. 10
Experimental: In order to identify the phase of the lipid suspension obtained by mixing DOPE-C8 and POPC at a molar ratio of 1:1, measurement by a small-angle X-ray scattering (SAXS) method was performed by a conventional method using a NANO-Viewer apparatus (Rigaku Corporation).

[7] = lipid alone (lipid:POPC=1:0), 20 mM HEPES pH 7.4, room temperature

## CCCCCCCC/C=C\CCCCCCCC(=O)OC[C@H](COP(=O)(O)OCCN)OC(=O)CCCCCCC/C=C\CCCCCCCC [DOPE, 1,2-dioleoyl-sn-glycero-3-phosphoethanolamine, reference compound]
[1]; Table 1
  Number average particle size (nm): 57 nm
  PDI: 0.25
  ζ-potential (mV): -2.5 mV
[1]; Table 1, N/P 6
  ζ-average particle size (nm): 88 nm
[1]; Table 2
  Number average particle size (nm): 67 nm
  PDI: 0.13
  ζ-average particle size (nm): 95 nm
  ζ-potential (mV): -2.9 mV
[2]; Table 1
  mRNA encapsulation rate %: 93.0%
[2]; Table 2
  mRNA encapsulation rate %: 92.8%
Erythrocytes (RBCs)
  membrane disruption activity (hemolytic activity): higher membrane disruption activity than the LNP containing DSPC
[3]; [7]
  lipid phase by 31P NMR spectrum: spectrum derived from the inverted hexagonal phase
[3]; lipid:POPC=9:1, 20 mM HEPES pH 7.4, room temperature
  lipid phase by 31P NMR spectrum: transition to the lamellar phase occurred

## CCCCCCCC/C=C\CCCCCCCC(=O)OC[C@H](COP(=O)(O)OCCNCCC(=O)OCCCCCCCC)OC(=O)CCCCCCC/C=C\CCCCCCCC [DOPE-C8, (R)-2,3-bis(oleoyloxy)propyl (2-((3-(octyloxy)-3-oxopropyl)ammonio)ethyl) phosphate]
[1]; Table 1
  Number average particle size (nm): 62 nm
  PDI: 0.21
  ζ-potential (mV): -5.6 mV
[1]; Table 1, N/P 6
  ζ-average particle size (nm): 94 nm
[1]; Table 3
  Number average particle size (nm): 55 nm
  PDI: 0.17
  ζ-average particle size (nm): 80 nm
  ζ-potential (mV): -12.8 mV
[2]; Table 1
  mRNA encapsulation rate %: 92.6%
[2]; Table 3
  mRNA encapsulation rate %: 97.6%
Liver [4]
  luciferase activity in the liver: highest activity
Liver [5]
  expression of EGFP in the liver: significantly higher expression of EGFP
Erythrocytes (RBCs)
  membrane disruption activity (hemolytic activity): higher membrane disruption activity than the LNP containing DSPC
[3]; POPC content increased beyond 1:1, Fig. 7B
  lipid phase by 31P NMR spectrum: the peak derived from the lamellar phase became stronger in a POPC content-dependent manner
[3]; [7]
  lipid phase by 31P NMR spectrum: spectrum derived from the inverted hexagonal phase
[3]; lipid:POPC molar ratio 1:1, 20 mM HEPES pH 7.4, room temperature
  lipid phase by 31P NMR spectrum: sharp peak centered at 0 ppm
[6]
  phase of the lipid suspension by SAXS: Im3m type inverse bicontinuous cubic phase
